Source: ChEMBL document CHEMBL3217701, “Squaric acid: a valuable scaffold for developing antimalarials?” (Medchemcomm, 2012)

Columns and labels:
[1] = biological target: T1, Papain (Carica papaya, UniProt P00784); assay: Inhibition of papaya papain using Z-Leu-Leu-Arg-AMC as substrate measured for 30 mins by fluorescence assay
T1 sequence (P00784 whole entry): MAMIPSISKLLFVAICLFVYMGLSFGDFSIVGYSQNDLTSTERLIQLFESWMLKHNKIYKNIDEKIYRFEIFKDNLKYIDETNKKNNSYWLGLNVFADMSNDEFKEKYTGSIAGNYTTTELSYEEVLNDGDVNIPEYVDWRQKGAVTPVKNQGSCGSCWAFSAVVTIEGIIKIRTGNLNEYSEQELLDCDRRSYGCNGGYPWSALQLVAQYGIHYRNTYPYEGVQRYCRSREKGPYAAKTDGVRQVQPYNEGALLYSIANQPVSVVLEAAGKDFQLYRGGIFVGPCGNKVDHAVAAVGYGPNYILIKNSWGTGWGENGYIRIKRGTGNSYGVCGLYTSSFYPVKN

[2] = system: Plasmodium falciparum; assay: Antiplasmodial activity against chloroquine-resistant ring stage of Plasmodium falciparum W2 infected in human RBC after 48 hrs by flow cytometric analysis; assay type: functional, organism-based; details: W2, 48 h
[3] = Cytotoxicity against mouse NIH/3T3 cells assessed as inhibition of cell viability after 48 hrs by MTT assay; assay type: cell-based; details: NIH3T3, 48 h
[4] = system: HEK-293T; assay: Cytotoxicity against HEK293T cells assessed as inhibition of cell viability after 48 hrs by MTT assay; assay type: cell-based; details: Homo sapiens
[5] = Selectivity index, ratio of IC50 for HEK293T cells to IC50 for chloroquine-resistant ring stage of Plasmodium falciparum W2; assay type: toxicity, cell-based, HEK-293T; details: human; read-out: Ratio IC50
[6] = Inhibition of Plasmodium falciparum falcipain-2 using Z-Leu-Arg-AMC as substrate after 10 mins by spectrofluorometric analysis

Structure (SMILES)	IC50 [1] [µM]	IC50 [2] [µM]	IC50 [3] [µM]	IC50 [4] [µM]	selectivity ratio [5]	IC50 [6] [µM]
CCCCOc1c(Nc2ccc(N3CCCCC3)cc2)c(=O)c1=O	> 10	3.13	> 100	> 100	> 32	
COc1c(N(Cc2ccccc2)NC(=O)[C@H](CC(C)C)NC(=O)OC(C)(C)C)c(=O)c1=O	> 10	> 1				
CC(C)C[C@H](Nc1c(Nc2ccc(C(C)(C)C)cc2)c(=O)c1=O)C(=O)NN(Cc1ccccc1)C(=O)/C=C/S(=O)(=O)c1ccccc1		> 10				
COc1c(Nc2ccc(N3CCCCC3)cc2)c(=O)c1=O	> 10	> 10				
CCN(CC)CCCC(C)Nc1c(NC(C)CCCN(CC)CC)c(=O)c1=O (configuration not stated)	> 10	> 10				
COc1c(N(CCc2ccccc2)NC(=O)[C@H](CC(C)C)NC(=O)OCc2ccccc2)c(=O)c1=O	> 10	2.99	> 100	> 100	> 33	
COc1c(NC(CO)Cc2ccccc2)c(=O)c1=O (configuration not stated)	> 10	> 10				> 50
CCCCOc1c(N(CCc2ccccc2)NC(=O)[C@H](CC(C)C)NC(=O)N2CCOCC2)c(=O)c1=O	> 10	> 10				
COc1c(NNC(=O)[C@H](CC(C)C)NC(=O)N2CCOCC2)c(=O)c1=O	> 10	> 10				
COc1c(N(CCc2ccccc2)NC(=O)CNC(=O)OCc2ccccc2)c(=O)c1=O	> 10	9.36	> 100	> 100	> 11	
CN(C)CC(C)(C)CNc1c(NCC(C)(C)CN(C)C)c(=O)c1=O	> 10	> 10				
COc1c(N(CCc2ccccc2)NC(=O)[C@H](CC(C)C)NC(=O)OC(C)(C)C)c(=O)c1=O	> 10	6.36	> 100	> 100	> 16	
CC(C)C[C@H](NC(=O)[C@H]1O[C@@H]1C(=O)O)C(=O)NCCCCN=C(N)N [E-64]	0.12					0.06
CCCCOc1c(N(CCc2ccccc2)NC(=O)[C@H](CC(C)C)NC(=O)OCc2ccccc2)c(=O)c1=O	> 10	4.51	> 100	> 100	> 22	
CCCCOc1c(N(CCc2ccccc2)NC(=O)[C@H](Cc2ccccc2)NC(=O)OCc2ccccc2)c(=O)c1=O	> 10	4.69	> 100	> 100	> 21	
CN(C)CCNc1c(NCCN(C)C)c(=O)c1=O	> 10	> 10				
COc1cccc(Nc2c(Nc3cccc(OC)c3)c(=O)c2=O)c1	> 5	> 10				> 50
O=c1c(Nc2cccnc2)c(Nc2cccnc2)c1=O	> 10	> 10				
COc1c(NNC(=O)[C@H](CC(C)C)NC(=O)OC(C)(C)C)c(=O)c1=O	> 10	8.53	> 100	> 100	> 12	
CCCCOc1c(N(CCc2ccccc2)NC(=O)[C@H](CC(C)C)NC(=O)OC(C)(C)C)c(=O)c1=O	> 10	> 10				
CCCCOc1c(NNC(=O)[C@H](CC(C)C)NC(=O)N2CCOCC2)c(=O)c1=O	> 10	9.45	> 100	> 100	> 11	

Structure (SMILES)	IC50 [1] [µM]	IC50 [2] [µM]	IC50 [3] [µM]	IC50 [4] [µM]	selectivity ratio [5]	IC50 [6] [µM]
CCCCOc1c(Nc2ccc(C(C)(C)C)cc2)c(=O)c1=O	> 10	2.65	17.5	12.3	4.7	> 50
CCCCOc1c(N(CCc2ccccc2)NC(=O)CNC(=O)OCc2ccccc2)c(=O)c1=O	> 10	5.17	> 100	> 100	> 19	
CCN(CC)CCNc1c(NCCN(CC)CC)c(=O)c1=O	> 10	> 10				> 50
CC(C)C[C@H](Nc1c(NC(CO)Cc2ccccc2)c(=O)c1=O)C(=O)NN(Cc1ccccc1)C(=O)/C=C/S(=O)(=O)c1ccccc1 (some centres not stated)		> 10				
O=c1c(Nc2ccc(N3CCCCC3)cc2)c(Nc2ccc(N3CCCCC3)cc2)c1=O	2.8	4.16	> 50	> 50	> 12	> 50
CCN(CC)CCCNc1c(NCCCN(CC)CC)c(=O)c1=O	> 10	> 10				> 50
CC(C)(C)c1ccc(Nc2c(Nc3ccc(C(C)(C)C)cc3)c(=O)c2=O)cc1	8.1	0.99	> 100	> 100	> 101	24.3
COc1c(N(CCc2ccccc2)NC(=O)[C@H](CC(C)C)NC(=O)N2CCOCC2)c(=O)c1=O	> 10	> 10				
COc1ccc(Nc2c(OC)c(=O)c2=O)cc1	> 10	> 10				
COc1c(Nc2cccnc2)c(=O)c1=O	> 10	> 10				
CC(C)NCCCNc1c(NCCCNC(C)C)c(=O)c1=O	> 10	> 10				> 50
CC(Nc1c(NC(C)c2ccccc2)c(=O)c1=O)c1ccccc1 (configuration not stated)	> 10	> 10				
O=c1c(NC2CCCCC2)c(NC2CCCCC2)c1=O	> 10	> 10				
COc1c(Nc2ccc(Cl)cc2)c(=O)c1=O	> 10	> 10				
CN(C)CCCNc1c(NCCCN(C)C)c(=O)c1=O	> 10	> 10				
COc1c(Nc2ccc(C(C)(C)C)cc2)c(=O)c1=O	> 10	> 10				
CCCCOc1c(NNC(=O)[C@H](CC(C)C)NC(=O)OC(C)(C)C)c(=O)c1=O	> 10	> 10				
O=c1c(NC(CO)Cc2ccccc2)c(NC(CO)Cc2ccccc2)c1=O (configuration not stated)	> 10	> 10				
COc1c(N(CCc2ccccc2)NC(=O)[C@H](Cc2ccccc2)NC(=O)OCc2ccccc2)c(=O)c1=O	> 10	3.14	> 100	> 100	> 32	
CCCCNc1c(NCCCC)c(=O)c1=O	> 10	> 10				
